Source: US11529311B2, “Method of using nebulized alcohol for analgesia” (BN Intellectual Properties, Inc., priority 2021, dated 2022)

Tests used:
[1] = adult, 1-2 inhalations
Excerpt: Example 2: A second patient treatment is of an adult experiencing sinus headaches using nebulized ethanol solution.

[2] = Experimental: Example 3: A third patient experienced acute pain from a chronic back injury which occurred during a car accident approximately 40 years earlier. The patient experienced acute pain for about 8 hours, requiring assistance to lower themself to sit in a chair, to stand up from the chair, and to walk about.
[3] = remark: listed apart in the source
Experimental: Example 1: A first patient treatment example is that of an adult experiencing pain from multiple neck injuries and replaced vertebrae who was treating pain using 60 mg Oxycontin® (30 mg in morning and night) and 6 doses of Percocet® daily as needed before ethanol treatment. The patient's opioid usage history spanned 11 years. The first patient also took Ambien® at night to promote sleep.
The first patient takes nebulized alcohol in the morning and at bedtime (about 3-4 inhalations each time), wakes in the night to use the bathroom, and occasionally takes nebulized alcohol during the night.

Remark: listed apart in the source
[4] = over the course of ethanol treatment
[5] = patient report, result of reduced Oxycontin doses
[6] = patient report, nebulized alcohol morning and bedtime

Ethyl alcohol [nebulized ethanol]
rate of achieving pain relief compared with other treatments (sinus rinse, other pain medications) [1]: significantly faster | pain relief after repeated treatment ([2]; 4 inhalations per treatment): complete relief | pain relief after initial session ([2]; 5 inhalations per treatment): complete pain relief | time until pain recurred after the initial session ([2]; 5 inhalations per treatment): approximately 12 hours | time to complete remission of pain ([2]; in vivo): 48 h | time to remission relative to time with other analgesics prior to ethanol therapy ([2]; in vivo): approximately 50% | reported levels of pain ([3]; adult male, 11 years of opioid use, over the course of ethanol treatment, about 3-4 inhalations morning and bedtime): significantly lower | Oxycontin usage ([3]; after 6 months of ethanol therapy, 60 mg daily before treatment): 10 mg/day | Percocet usage ([3]; after 6 months of ethanol therapy, 6 doses daily as needed before treatment): no Percocet® during the day | opioid usage [3, 4]: reduced | physical stamina, physical performance (kidney and bowel function), and mental acuity [3, 4]: improved | alertness, attention, and mental acuity [3, 5]: increased | bowel function [3, 5]: increased bowel function | mobility [3, 5]: greater mobility (able to resume dance activities) | posture [3, 5]: improved posture (able to hold head in a vertical position) | renal function [3, 5]: increased renal function (no more water retention/bloating) | quality of sleep [3, 6]: increased | usage of sleep aids to counteract discomfort and pain from injuries [3, 6]: reduced | duration of brain effects (euphoria, and so forth) (persons in the absence of significant pain): about 2 hours | reported feeling (side effects) (persons who take nebulized alcohol for pain): moderate sleepiness or drowsiness, but not “buzzed” or “intoxicated”
